Laboratory results from ChEMBL document CHEMBL3885881, “DrugMatrix”.

Organism: Rattus norvegicus
Experiment: DrugMatrix - Regimen: Daily Repeat
Type: toxicity, organism-based, Sprague-Dawley
Parameters: regimen Daily Repeat, gender Male, age 6-8 weeks
Details: in vivo, iv, vehicle 100 % SALINE; for EOSINOPHIL / ERYTHROCYTE COUNT / HEMATOCRIT / HEMOGLOBIN / LEUKOCYTE COUNT / LYMPHOCYTE / MEAN CORPUSCULAR HEMOGLOBIN / MEAN CORPUSCULAR HEMOGLOBIN CONCENTRATION / MEAN CORPUSCULAR VOLUME / MONOCYTE / NEUTROPHIL / NUCLEATED RED BLOOD CELLS / PLATELET COUNT / ABSOLUTE BASOPHIL / ABSOLUTE EOSINOPHIL / ABSOLUTE LYMPHOCYTE / ABSOLUTE MONOCYTE / ABSOLUTE SEGMENTED NEUTROPHIL / BASOPHIL: tissue Blood; for ALANINE AMINOTRANSFERASE / ALBUMIN / ALKALINE PHOSPHATASE / ASPARTATE AMINOTRANSFERASE / BLOOD UREA NITROGEN / CARBON DIOXIDE / CHLORIDE / CHOLESTEROL / CREATINE PHOSPHOKINASE / CREATININE / GLUCOSE / LACTATE DEHYDROGENASE / LIPASE / PHOSPHORUS / POTASSIUM / SODIUM / TOTAL BILIRUBIN / TOTAL PROTEIN / URIC ACID: tissue Plasma
[1] = 0 mg/kg, 72 h, dose level Control, time 3 day
[2] = 0 mg/kg, 120 h, dose level Control, time 5 day
[3] = 20 mg/kg, 72 h, dose level Low, time 3 day
[4] = 20 mg/kg, 120 h, dose level Low, time 5 day

With `NCC[C@H](O)C(=O)N[C@@H]1C[C@H](N)[C@@H](O[C@H]2O[C@H](CN)[C@@H](O)[C@H](O)[C@H]2O)[C@H](O)[C@H]1O[C@H]1O[C@H](CO)[C@@H](O)[C@H](N)[C@H]1O` [AMIKACIN] the EOSINOPHIL [1] was 0%, the “ERYTHROCYTE COUNT” value [1] was 5.38 x10E6/uL and the HEMATOCRIT [1] was 33.67%. For the same compound, the HEMOGLOBIN [1] was 12.88 G/DL, the “LEUKOCYTE COUNT” value [1] was 8.37 x10E3/uL and the LYMPHOCYTE [1] was 91.17%. For the same compound, the “MEAN CORPUSCULAR HEMOGLOBIN” value [1] was 23.95 pg, the “MEAN CORPUSCULAR HEMOGLOBIN CONCENTRATION” value [1] was 38.23 G/DL and the “MEAN CORPUSCULAR VOLUME” value [1] was 62.6 fL. The MONOCYTE [1] was 0.83%, the NEUTROPHIL [1] was 8% and the “NUCLEATED RED BLOOD CELLS” value [1] was 0.17 /100WBC. For the same compound, the “PLATELET COUNT” value [1] was 865 x10E3/uL, the “ALANINE AMINOTRANSFERASE” value [1] was 51.67 u/L and the ALBUMIN [1] was 3.97 G/DL. For the same compound, the “ALKALINE PHOSPHATASE” value [1] was 351.17 u/L, the “ASPARTATE AMINOTRANSFERASE” value [1] was 82.33 u/L and the “BLOOD UREA NITROGEN” value [1] was 15.17 mg/dL. The “CARBON DIOXIDE” value [1] was 34.5 mmol/L, the CHLORIDE [1] was 100 MEQ/L and the CHOLESTEROL [1] was 80.33 mg/dL. For the same compound, the “CREATINE PHOSPHOKINASE” value [1] was 316.5 u/L, the CREATININE [1] was 0.17 mg/dL and the GLUCOSE [1] was 149.17 mg/dL. The “LACTATE DEHYDROGENASE” value [1] was 105.67 u/L, the LIPASE [1] was 9.5 u/L and the PHOSPHORUS [1] was 10.87 mg/dL. For the same compound, the POTASSIUM [1] was 5.47 MEQ/L, the SODIUM [1] was 144.2 MEQ/L and the “TOTAL BILIRUBIN” value [1] was 0.2 mg/dL. For the same compound, the “TOTAL PROTEIN” value [1] was 5.83 G/DL, the “URIC ACID” value [1] was 0.83 mg/dL and the “ABSOLUTE BASOPHIL” value [2] was 0 CELLS/uL. The “ABSOLUTE EOSINOPHIL” value [2] was 0 CELLS/uL, the “ABSOLUTE LYMPHOCYTE” value [2] was 6333.5 CELLS/uL and the “ABSOLUTE MONOCYTE” value [2] was 38.83 CELLS/uL. The “ABSOLUTE SEGMENTED NEUTROPHIL” value [2] was 661 CELLS/uL, the BASOPHIL [2] was 0% and the EOSINOPHIL [2] was 0%. For the same compound, the “ERYTHROCYTE COUNT” value [2] was 5.44 x10E6/uL, the HEMATOCRIT [2] was 34.17% and the HEMOGLOBIN [2] was 13.22 G/DL. The “LEUKOCYTE COUNT” value [2] was 7.03 x10E3/uL, the LYMPHOCYTE [2] was 90.17% and the “MEAN CORPUSCULAR HEMOGLOBIN” value [2] was 24.38 pg. The “MEAN CORPUSCULAR HEMOGLOBIN CONCENTRATION” value [2] was 38.7 G/DL, the “MEAN CORPUSCULAR VOLUME” value [2] was 62.95 fL and the MONOCYTE [2] was 0.5%. The NEUTROPHIL [2] was 9.33%, the “NUCLEATED RED BLOOD CELLS” value [2] was 0 /100WBC and the “PLATELET COUNT” value [2] was 924.33 x10E3/uL. For the same compound, the “ALANINE AMINOTRANSFERASE” value [2] was 52.5 u/L, the ALBUMIN [2] was 3.97 G/DL and the “ALKALINE PHOSPHATASE” value [2] was 364.83 u/L. The “ASPARTATE AMINOTRANSFERASE” value [2] was 82.5 u/L, the “BLOOD UREA NITROGEN” value [2] was 17 mg/dL and the “CARBON DIOXIDE” value [2] was 32.33 mmol/L. The CHLORIDE [2] was 99.6 MEQ/L, the CHOLESTEROL [2] was 75.83 mg/dL and the “CREATINE PHOSPHOKINASE” value [2] was 419 u/L. For the same compound, the CREATININE [2] was 0.21 mg/dL, the GLUCOSE [2] was 155 mg/dL and the “LACTATE DEHYDROGENASE” value [2] was 111.5 u/L. It also gave an LIPASE [2] of 11.33 u/L, a PHOSPHORUS [2] of 10.32 mg/dL and a POTASSIUM [2] of 5.37 MEQ/L. The SODIUM [2] was 144.64 MEQ/L, the “TOTAL BILIRUBIN” value [2] was 0.18 mg/dL and the “TOTAL PROTEIN” value [2] was 5.98 G/DL. For the same compound, the “URIC ACID” value [2] was 0.62 mg/dL, the “ABSOLUTE BASOPHIL” value [3] was 0 CELLS/uL and the “ABSOLUTE EOSINOPHIL” value [3] was 0 CELLS/uL. For the same compound, the “ABSOLUTE LYMPHOCYTE” value [3] was 8480.67 CELLS/uL, the “ABSOLUTE MONOCYTE” value [3] was 225.67 CELLS/uL and the “ABSOLUTE SEGMENTED NEUTROPHIL” value [3] was 993.67 CELLS/uL. The BASOPHIL [3] was 0%, the EOSINOPHIL [3] was 0% and the “ERYTHROCYTE COUNT” value [3] was 5.64 x10E6/uL. For the same compound, the HEMATOCRIT [3] was 34.43%, the HEMOGLOBIN [3] was 13 G/DL and the “LEUKOCYTE COUNT” value [3] was 9.7 x10E3/uL. For the same compound, the LYMPHOCYTE [3] was 88%, the “MEAN CORPUSCULAR HEMOGLOBIN” value [3] was 23.03 pg and the “MEAN CORPUSCULAR HEMOGLOBIN CONCENTRATION” value [3] was 37.77 G/DL. The “MEAN CORPUSCULAR VOLUME” value [3] was 61 fL, the MONOCYTE [3] was 2.33% and the NEUTROPHIL [3] was 9.67%. The “NUCLEATED RED BLOOD CELLS” value [3] was 0.33 /100WBC, the “PLATELET COUNT” value [3] was 903.33 x10E3/uL and the “ALANINE AMINOTRANSFERASE” value [3] was 53.67 u/L. The ALBUMIN [3] was 4.13 G/DL, the “ALKALINE PHOSPHATASE” value [3] was 308.67 u/L and the “ASPARTATE AMINOTRANSFERASE” value [3] was 82.33 u/L. For the same compound, the “BLOOD UREA NITROGEN” value [3] was 14 mg/dL, the “CARBON DIOXIDE” value [3] was 35.67 mmol/L and the CHLORIDE [3] was 99 MEQ/L. The CHOLESTEROL [3] was 77.33 mg/dL, the “CREATINE PHOSPHOKINASE” value [3] was 320 u/L and the CREATININE [3] was 0.17 mg/dL. The GLUCOSE [3] was 145.67 mg/dL, the “LACTATE DEHYDROGENASE” value [3] was 98 u/L and the LIPASE [3] was 9.33 u/L. It also gave a PHOSPHORUS [3] of 11.1 mg/dL, a POTASSIUM [3] of 6.07 MEQ/L and an SODIUM [3] of 144.47 MEQ/L. The “TOTAL BILIRUBIN” value [3] was 0.2 mg/dL, the “TOTAL PROTEIN” value [3] was 6.03 G/DL and the “URIC ACID” value [3] was 0.9 mg/dL. For the same compound, the “ABSOLUTE BASOPHIL” value [4] was 0 CELLS/uL, the “ABSOLUTE EOSINOPHIL” value [4] was 0 CELLS/uL and the “ABSOLUTE LYMPHOCYTE” value [4] was 3175.67 CELLS/uL.
